Measurements as given in patent US11013236B2, “Pesticidal Flavobacterium strain and bioactive compositions metabolites and uses” (Marrone Bio Innovations, Inc., priority 2012, dated 2021).

Tests used:
nematodes (J2's) = assay: SAR motility bioassay of synthetic analogues; format: in vivo; details: 3 μL at 20 mg/ml into 50 μl with approximately 300 J2's, 24 hours, then 24 hour recovery on 1.5% water agar; average of 6 repetitions
Method: To quickly understand which part of the 1-(4-hydroxyphenyl) pent-1-en-3-one (1) molecule (polyketide) plays a crucial role on the nematicidal activity, a series of structural analogues were synthesized and evaluated using motility test. This bioassay serves to distinguish the differences in efficacy by measuring the recovery and the mobility of the nematodes after being exposed to any given compound with 6 repetitions per treatment. This bioassay involves the following procedure: 3 μL (at 20 mg/ml) of the sample are dispensed into 50 μl of approximately 300 J2's in a 96-well plastic cell-culture plate. After 24 hours, 100-150 of the treated J2's were transferred into 6-well plates that contain 1.5% water agar. After drying of the test sample on the agar, the initial drop was marked and initial counts of the J2's were carried out. After another 24 hour recovery period, the immobilization of the juveniles were measured by counting the number of J2's that moved from the initial circle and an average of the 6 repetitions were calculated to get the percent immobilization of each sample.

M. hapla = assay: In vitro 96-well plate bioassay of purified peaks of fraction 3; format: in vivo, Meloidogyne hapla; details: 24 hour at 25° C.
Method: (§1) Once the purification of fraction 3 is complete and all of the desired peaks/compounds are collected as described above, each peak is tested in an in vitro 96-well plastic cell-culture plate extract bioassay in order to identify the peak/s that contain the desired active metabolite/s.
(§2) 15-20 nematodes in a […] water solution are exposed to […] of a 20 mg/ml peak concentrate (1.13 mg/ml total exposure) for a 24 hour period at 25° C. Once the incubation period is completed, results are recorded based on a visual grading of immotility of the J2s in each well treated with H492 purified peaks of H1 to H39, plus H29-A derived from fraction 3, each treatment is tested in four replicates. Three controls are included in each trial; one positive control (1% avid). and two negative controls (DMSO and water). Trial 1 (T1) was carried out using the method described above with M. hapla, trial 2 and 3 (T2 and T3) were carried out using the latter method with M. incognita (FIG. 22).

M. incognita [1] = assay: as above; format: in vivo, Meloidogyne incognita; details: 24 hour at 25° C.
Method: as §1, §2

[2] = system: nematode juveniles (J2) of M. incognita (Monsanto strain); assay: Dose response % immotility for synthesized polyketide, 6-well plate immobility bioassay; format: in vivo, Meloidogyne incognita; details: tested 0.14-1.69 mg/mL in DMSO; 24 h exposure, 24 h on water agar; FIG. 23
Method: The synthetic polyketide (MW 176) was tested at several doses (concentrations tested were 0.14, 0.28, 0.42, 0.56, 0.84, 1.13, 1.69 mg/mL of polyketide in DMSO) in the 6-well plate immobility bioassay to find the optimal dose of this compound needed in order to detect nematicidal activity. In this particular assay the nematode juveniles (J2) of M. incognita (Monsanto strain) were first exposed to the tested samples in 96-well plate: 50 μl of water containing approximately 300 J2 were mixed with 3 μl of polyketide sample or controls (avid (2%) as positive control or DMSO and water as negative controls, respectively. After 24 h incubation, 20 μl of J2 suspension from each well was transferred into the wells of 6-well plates filled with water agar (3 mL of 1% agar per each well). The plates were left open for 10-15 min to allow the solutions to dry out. Afterwards, circles were drawn around the J2 suspension and initial numbers of J2 inside the circles were counted under the stereomicroscope. The plates were incubated for another 24 h and the numbers of J2 that remained immotile (i.e. were still present inside the circles) were counted using stereomicroscope. The % of nematode immotility was expressed as: [(number of immotile nematodes after 24 h incubation/initial number of J2)*100%].

M. incognita [3] = assay: Greenhouse cone test of polyketide 1, tomato (cv. UC82) as host; format: in vivo, Meloidogyne incognita; details: compared to water control
Method: The nematicidal activity of polyketide 1 (MW 176 compound) against root-knot nematodes was further assessed in greenhouse in cone tests using M. incognita and tomato (cv. UC82) as a host. The tomato seeds were germinated in vermiculate and 3-week-old seedlings were transferred to the cones containing mixture of sand and top soil (1:1). Two weeks after transplanting, tomato plants were treated with the samples. […] Four different concentrations (100, 10, 1, & 0.1 μg/mL) of the polyketide prepared in 4% methanol (MeOH) were dosed as 10 mL of soil drench into each pot. Each treatment was tested in 5 replicates. Following the drench each pot was inoculated with 1000 nematode eggs suspended in 1 mL of water. The dosing of the product was repeated after two weeks. Three weeks later, the inoculation test was terminated and the following parameters were scored: number of galls/root, gall index and fresh top weight.

[4] = system: Avidovorax avenae subsp. citrulli; assay: Antimicrobial agar disc assay; format: cell-based
Method: (§3) The pure 1-(4-hydroxyphenyl) pent-1-en-3-one (1) “polyketide MW 176” was tested against various microbial pathogens using agar disc assay.

Bacillus cereus = assay: Antimicrobial agar disc assay; format: cell-based
Method: as §3

Erwinia amylovora = assay: Antimicrobial agar disc assay; format: cell-based
Method: as §3

Xanthomonas campestris = assay: Antimicrobial agar disc assay; format: cell-based
Method: as §3

Row | SMILES | Average % immobility (nematodes (J2's)) [%] | further results
1 | CCCCC1CCC(=O)O1 (stereo not shown) [SAR-34, γ-octalactone] | 21 | 
2 | O=Cc1cccc(O)c1 [SAR-29, 3-hydroxybenzaldehyde] | 70 | 
3 | O=C(/C=C/c1ccc(O)cc1)c1ccccc1 [SAR-9, (E)-3-(4-hydroxyphenyl)-1-phenylprop-2-en-1-one] | 100 | 
4 | CC(C)CC(=O)/C=C/c1cccc(O)c1 [SAR-27, (E)-1-(3-hydroxyphenyl)-5-methylhex-1-en-3-one] | 78 | 
5 | CC(C)C=O [SAR-40, iso-butyraldehyde] | 79 | 
6 | O=C(/C=C/Cc1ccccc1)c1ccccc1 [SAR-19, (E)-1,4-diphenylbut-2-en-1-one] | 64 | 
7 | O=Cc1ccccc1 [SAR-32, Benzaldehyde] | 65 | 
8 | CC(=O)/C(C)=C/c1ccc(O)cc1 [SAR-24, (E)-4-(4-hydroxyphenyl)-3-methylbut-3-en-2-one] | 80 | 
9 | O=C(/C=C/c1cccc(O)c1)c1ccccc1 [SAR-22, (E)-3-(3-hydroxyphenyl)-1-phenylprop-2-en-1-one] | 70 | 
10 | CCC(=O)/C=C/c1ccc(O)cc1 [Compound 1, 1-(4-hydroxyphenyl) pent-1-en-3-one] |  | Potency in in vitro assay (immotility of J2s) (M. hapla): confirmed; Potency in in vitro assay (immotility of J2s) (M. incognita [1]): confirmed; optimal range required for good nematicidal activity (% immotility) [2]: ≥ 0.5 mg/mL; gall index (M. incognita [3]; 0.1 mg/ml, 10 mL soil drench, 1st test): significantly reduced; gall index and galls per root (M. incognita [3]; 0.001 & 0.01 mg/ml, 10 mL soil drench, 1st test): significantly reduced; gall index (M. incognita [3]; all tested dilutions, 2nd test): significantly reduced; antimicrobial activity [4]: moderate activity; antimicrobial activity (Bacillus cereus): moderate activity; antimicrobial activity (Erwinia amylovora): potent activity; antimicrobial activity (Xanthomonas campestris): moderate activity
11 | CC(=O)/C=C/C=C/c1ccccc1 [SAR-4, (3E,5E)-6-phenylhexa-3,5-dien-2-one] | 97 | 
12 | CC(=O)/C=C/c1ccc(O)cc1 [SAR-28, (E)-4-(4-hydroxyphenyl)but-3-en-2-one] | 78 | 
13 | O=C(CBr)c1ccccc1 [SAR-26, 2-bromo-1-phenylethanone] | 50 | 
14 | CCC(=O)/C=C/c1ccccc1 [SAR-23, (E)-1-phenylpent-1-en-3-one] | 80 | 
15 | O=C(/C=C/c1ccccc1)c1ccccc1 [SAR-2, Benzalacetophenone] | 4 | 
16 | CCCCCC(C)=O [SAR-36, 2-heptanone] | 21 | 
17 | CC(=O)/C(C)=C/c1ccccc1O [SAR-14, (E)-4-(2-hydroxyphenyl)-3-methylbut-3-en-2-one] | 97 | 
18 | CCC(C)=O [SAR-43, 2-butanone] | 21 | 
19 | CC(=O)/C=C/c1ccccc1O [SAR-3, (E)-4-(2-hydroxyphenyl)but-3-en-2-one] | 95 | 
20 | CC(=O)CC(C)(C)O [SAR-41, 4-hydroxy-4-methylpentanone] | 21 | 
21 | CC/C=C/C(=O)c1ccccc1 [SAR-15, (E)-1-phenylpent-2-en-1-one] | 20 | 
22 | CC(=O)/C=C/c1ccccc1O [SAR-12, (E)-4-(2-hydroxyphenyl)but-3-en-2-one] | 99 | 

Row | SMILES | Average % immobility (nematodes (J2's)) [%] | further results
23 | O=C(/C=C/Cc1ccccc1)c1ccc(O)cc1 [SAR-20, (E)-1-(4-hydroxyphenyl)-4-phenylbut-2-en-1-one] | 28 | 
24 | O=Cc1ccccc1O [SAR-31, 2-hydroxybenzaldehyde] | 58 | 
25 | CCCCCCCCCC(C)=O [SAR-37, 2-undecanone] | 67 | 
26 | C/C(=C\c1cccc(O)c1)C(=O)/C=C/c1cccc(O)c1 [SAR-21, (1E,4E)-1,5-bis(3-hydroxyphenyl)-2-methylpenta-1,4-dien-3-one] | 12 | 
27 | CC/C=C\CC/C=C/C(C)=O [SAR-16, (3E,7Z)-deca-3,7-dien-2-one] | 94 | 
28 | CC(C)CC(=O)/C=C/c1ccc(O)cc1 [SAR-10, (E)-1-(4-hydroxyphenyl)-5-methylhex-1-en-3-one] | 96 | 
29 | CCC(=O)/C=C/c1ccccc1O [SAR-6, (E)-1-(2-hydroxyphenyl)pent-1-en-3-one] | 98 | 
30 | O=C(/C=C/c1cccc(O)c1)/C=C/c1cccc(O)c1 [SAR-18, (1E,4E)-1,5-bis(3-hydroxyphenyl) penta-1,4-dien-3-one] | 23 | 
31 | CC(=O)CC(C)C [SAR-39, 4-methyl-2-pentanone] | 54 | 
32 | CCCCCCC(C)=O [SAR-35, 2-octanone] | 33 | 
33 | CCCCCCCCC1CCC(=O)O1 (stereo not shown) [SAR-33, γ-dodecalactone] | 63 | 
34 | CC(=O)/C=C/c1cccc(O)c1 [SAR-11, (E)-4-(3-hydroxyphenyl)but-3-en-2-one] | 99 | 
35 | CC(C)CC(=O)/C=C/c1ccccc1 [SAR-25, (E)-5-methyl-1-phenylhex-1-en-3-one] | 79 | 
36 | O=Cc1ccccc1OCC(=O)c1ccccc1 [SAR-13, 2-(2′-phenyl-2-oxoethoxy) benzaldehyde] | 74 | 
37 | O=C(/C=C/c1ccccc1O)c1ccccc1 [SAR-7, (E)-3-(2-hydroxyphenyl)-1-phenylprop-2-en-1-one] | 99 | 
38 | COc1ccccc1C=O [SAR-42, o-anisaldehyde] | 8 | 
39 | O=C(/C=C/C=C/c1ccccc1)c1ccccc1 [SAR-5, (2E,4E)-1,5-diphenylpenta-2,4-dien-1-one] | 98 | 
40 | O=Cc1ccc(O)cc1 [SAR-30, 4-hydroxybenzaldehyde] | 58 | 
41 | CC(=O)/C=C/c1ccccc1 [SAR-1, (E)-4-phenylbut-3-en-2-one] | 99 | 
42 | CC/C=C\CCC=O [SAR-38, cis-4-heptenal] | 21 | 
43 | CC(C)CC(=O)/C=C/c1ccccc1O [SAR-8, (E)-1-(2-hydroxyphenyl)-5-methylhex-1-en-3-one] | 100 | 
